Data from the supplement of paper PMC11208160.

Test: recombinant UMI read abundance after kanamycin selection (control-corrected) (log10(CPM+1)); higher = more efficient recombination; extreme values may be limits of the assay; sequences stand for … in AGTGCAGAGAAAATCGGCCAGTTTTCTCTGCCTGCAGTCCGCATGCCGTGGGACCCCTTGGGTTCTAACCTGTTGCCTAGATTTATGCAGCGGACTGCCTTTCTCCCAAAGTGATAAACCGG…AGGTTGGTTTCACT; site = the 11-nt donor
How it was run: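 In Escherichia coli, a pool of donor and donor-binding-loop pairs, each with a 12-nt UMI, was tested for the IS621 bridge recombinase. Plating was on IPTG (0.07 mM) plus kanamycin, or without selection, in two replicates. Recombinant UMIs were amplified by PCR across the donor–target junction and sequenced, and counts were reported as log10(CPM+1) after averaging and control-derived scaling.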
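Note: IS621 bridge recombinase in Escherichia coli cells against a fixed T5 target plasmid.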

CTAGTATCATGGACCGGTTTTCCCGGTAATCCGTATTTGAC (site CTAGACTCTGT)
recombinant UMI read abundance (log10): 0

CTAGTATCATGGACCGGTTTTCCCGGTAATCCGTATTTGAC (site CTAGCAGCTGT)
recombinant UMI read abundance (log10): 0

CTAGTATCATGGACCGGTTTTCCCGGTAATCCGTATTTGAC (site CTAGCATCTGG)
recombinant UMI read abundance (log10): 0

CTAGTATCATGGACCGGTTTTCCCGGTAATCCGTATTTGAC (site CTAGCATCTGT)
recombinant UMI read abundance (log10): 1.59

CTAGTATCATGGACCGGTTTTCCCGGTAATCCGTATTTGAC (site CTAGCATCTTT)
recombinant UMI read abundance (log10): 0.0133

CTAGTATCATGGACCGGTTTTCCCGGTAATCCGTATTTGAC (site CTAGCTTCTGT)
recombinant UMI read abundance (log10): 0

CTAGTATCATGGACCGGTTTTCCCGGTAATCCGTATTTGAC (site CTAGGACCTGT)
recombinant UMI read abundance (log10): 0

CTAGTATCATGGACCGGTTTTCCCGGTAATCCGTATTTGAC (site CTAGGATCTAT)
recombinant UMI read abundance (log10): 0.00421

CTAGTATCATGGACCGGTTTTCCCGGTAATCCGTATTTGAC (site CTAGGATCTGC)
recombinant UMI read abundance (log10): 0

CTAGTATCATGGACCGGTTTTCCCGGTAATCCGTATTTGAC (site CTAGGATCTGT)
recombinant UMI read abundance (log10): 0.927

CTAGTATCATGGACCGGTTTTCCCGGTAATCCGTATTTGAC (site CTAGGGTCTGT)
recombinant UMI read abundance (log10): 0

CTAGTATCATGGACCGGTTTTCCCGGTAATCCGTATTTGAC (site CTAGTAACTCT)
recombinant UMI read abundance (log10): 0.0077

CTAGTATCATGGACCGGTTTTCCCGGTAATCCGTATTTGAC (site CTAGTAACTGA)
recombinant UMI read abundance (log10): 0

CTAGTATCATGGACCGGTTTTCCCGGTAATCCGTATTTGAC (site CTAGTAACTGT)
recombinant UMI read abundance (log10): 1.82

CTAGTATCATGGACCGGTTTTCCCGGTAATCCGTATTTGAC (site CTAGTACCTAT)
recombinant UMI read abundance (log10): 0.00604

CTAGTATCATGGACCGGTTTTCCCGGTAATCCGTATTTGAC (site CTAGTACCTGC)
recombinant UMI read abundance (log10): 0

CTAGTATCATGGACCGGTTTTCCCGGTAATCCGTATTTGAC (site CTAGTACCTGT)
recombinant UMI read abundance (log10): 0

CTAGTATCATGGACCGGTTTTCCCGGTAATCCGTATTTGAC (site CTAGTAGCTGG)
recombinant UMI read abundance (log10): 0

CTAGTATCATGGACCGGTTTTCCCGGTAATCCGTATTTGAC (site CTAGTAGCTGT)
recombinant UMI read abundance (log10): 0

CTAGTATCATGGACCGGTTTTCCCGGTAATCCGTATTTGAC (site CTAGTAGCTTT)
recombinant UMI read abundance (log10): 0.0305

CTAGTATCATGGACCGGTTTTCCCGGTAATCCGTATTTGAC (site CTAGTATCTAC)
recombinant UMI read abundance (log10): 0.564

CTAGTATCATGGACCGGTTTTCCCGGTAATCCGTATTTGAC (site CTAGTATCTAT)
recombinant UMI read abundance (log10): 2.78

CTAGTATCATGGACCGGTTTTCCCGGTAATCCGTATTTGAC (site CTAGTATCTCA)
recombinant UMI read abundance (log10): 0.333

CTAGTATCATGGACCGGTTTTCCCGGTAATCCGTATTTGAC (site CTAGTATCTCT)
recombinant UMI read abundance (log10): 1.67

CTAGTATCATGGACCGGTTTTCCCGGTAATCCGTATTTGAC (site CTAGTATCTGA)
recombinant UMI read abundance (log10): 1.14

CTAGTATCATGGACCGGTTTTCCCGGTAATCCGTATTTGAC (site CTAGTATCTGC)
recombinant UMI read abundance (log10): 2.62

CTAGTATCATGGACCGGTTTTCCCGGTAATCCGTATTTGAC (site CTAGTATCTGG)
recombinant UMI read abundance (log10): 1.48

CTAGTATCATGGACCGGTTTTCCCGGTAATCCGTATTTGAC (site CTAGTATCTGT)
recombinant UMI read abundance (log10): 2.66

CTAGTATCATGGACCGGTTTTCCCGGTAATCCGTATTTGAC (site CTAGTATCTTG)
recombinant UMI read abundance (log10): 0.0198

CTAGTATCATGGACCGGTTTTCCCGGTAATCCGTATTTGAC (site CTAGTATCTTT)
recombinant UMI read abundance (log10): 2.1

CTAGTATCATGGACCGGTTTTCCCGGTAATCCGTATTTGAC (site CTAGTCACTGT)
recombinant UMI read abundance (log10): 0

CTAGTATCATGGACCGGTTTTCCCGGTAATCCGTATTTGAC (site CTAGTCTCTCT)
recombinant UMI read abundance (log10): 0.0131

CTAGTATCATGGACCGGTTTTCCCGGTAATCCGTATTTGAC (site CTAGTCTCTGA)
recombinant UMI read abundance (log10): 0

CTAGTATCATGGACCGGTTTTCCCGGTAATCCGTATTTGAC (site CTAGTCTCTGT)
recombinant UMI read abundance (log10): 1.18

CTAGTATCATGGACCGGTTTTCCCGGTAATCCGTATTTGAC (site CTAGTGCCTGT)
recombinant UMI read abundance (log10): 0

CTAGTATCATGGACCGGTTTTCCCGGTAATCCGTATTTGAC (site CTAGTGTCTAT)
recombinant UMI read abundance (log10): 0.00843

CTAGTATCATGGACCGGTTTTCCCGGTAATCCGTATTTGAC (site CTAGTGTCTGC)
recombinant UMI read abundance (log10): 0

CTAGTATCATGGACCGGTTTTCCCGGTAATCCGTATTTGAC (site CTAGTGTCTGT)
recombinant UMI read abundance (log10): 2.01

CTAGTATCATGGACCGGTTTTCCCGGTAATCCGTATTTGAC (site CTAGTTGCTGT)
recombinant UMI read abundance (log10): 0

CTAGTATCATGGACCGGTTTTCCCGGTAATCCGTATTTGAC (site CTAGTTTCTGG)
recombinant UMI read abundance (log10): 0

CTAGTATCATGGACCGGTTTTCCCGGTAATCCGTATTTGAC (site CTAGTTTCTGT)
recombinant UMI read abundance (log10): 0

CTAGTATCATGGACCGGTTTTCCCGGTAATCCGTATTTGAC (site CTAGTTTCTTT)
recombinant UMI read abundance (log10): 0

CTAGTATCATGGACCGGTTTTCCCGGTAATCCGTATTTGAC (site CTATGATCTGT)
recombinant UMI read abundance (log10): 0

CTAGTATCATGGACCGGTTTTCCCGGTAATCCGTATTTGAC (site CTATTACCTGT)
recombinant UMI read abundance (log10): 0

CTAGTATCATGGACCGGTTTTCCCGGTAATCCGTATTTGAC (site CTATTATCTAT)
recombinant UMI read abundance (log10): 0

CTAGTATCATGGACCGGTTTTCCCGGTAATCCGTATTTGAC (site CTATTATCTGC)
recombinant UMI read abundance (log10): 0

CTAGTATCATGGACCGGTTTTCCCGGTAATCCGTATTTGAC (site CTATTATCTGT)
recombinant UMI read abundance (log10): 0.701

CTAGTATCATGGACCGGTTTTCCCGGTAATCCGTATTTGAC (site CTATTGTCTGT)
recombinant UMI read abundance (log10): 0

CTAGTATCATGGACCGGTTTTCCCGGTAATCCGTATTTGAC (site CTCATATCTGT)
recombinant UMI read abundance (log10): 0.632

CTAGTATCATGGACCGGTTTTCCCGGTAATCCGTATTTGAC (site CTCGAATCTGT)
recombinant UMI read abundance (log10): 0

CTAGTATCATGGACCGGTTTTCCCGGTAATCCGTATTTGAC (site CTCGTAACTGT)
recombinant UMI read abundance (log10): 0

CTAGTATCATGGACCGGTTTTCCCGGTAATCCGTATTTGAC (site CTCGTATCTCT)
recombinant UMI read abundance (log10): 0.007

CTAGTATCATGGACCGGTTTTCCCGGTAATCCGTATTTGAC (site CTCGTATCTGA)
recombinant UMI read abundance (log10): 0

CTAGTATCATGGACCGGTTTTCCCGGTAATCCGTATTTGAC (site CTCGTATCTGT)
recombinant UMI read abundance (log10): 0.0723

CTAGTATCATGGACCGGTTTTCCCGGTAATCCGTATTTGAC (site CTCGTCTCTGT)
recombinant UMI read abundance (log10): 0

CTAGTATCATGGACCGGTTTTCCCGGTAATCCGTATTTGAC (site CTGCTATCTGT)
recombinant UMI read abundance (log10): 0

CTAGTATCATGGACCGGTTTTCCCGGTAATCCGTATTTGAC (site CTGGCATCTGT)
recombinant UMI read abundance (log10): 0

CTAGTATCATGGACCGGTTTTCCCGGTAATCCGTATTTGAC (site CTGGTAGCTGT)
recombinant UMI read abundance (log10): 0

CTAGTATCATGGACCGGTTTTCCCGGTAATCCGTATTTGAC (site CTGGTATCTGG)
recombinant UMI read abundance (log10): 0

CTAGTATCATGGACCGGTTTTCCCGGTAATCCGTATTTGAC (site CTGGTATCTGT)
recombinant UMI read abundance (log10): 0

CTAGTATCATGGACCGGTTTTCCCGGTAATCCGTATTTGAC (site CTGGTATCTTT)
recombinant UMI read abundance (log10): 0.0145

CTAGTATCATGGACCGGTTTTCCCGGTAATCCGTATTTGAC (site CTGGTTTCTGT)
recombinant UMI read abundance (log10): 0

CTAGTATCATGGACCGGTTTTCCCGGTAATCCGTATTTGAC (site CTTGGATCTGT)
recombinant UMI read abundance (log10): 0

CTAGTATCATGGACCGGTTTTCCCGGTAATCCGTATTTGAC (site CTTGTACCTGT)
recombinant UMI read abundance (log10): 0.169

CTAGTATCATGGACCGGTTTTCCCGGTAATCCGTATTTGAC (site CTTGTATCTAT)
recombinant UMI read abundance (log10): 0

CTAGTATCATGGACCGGTTTTCCCGGTAATCCGTATTTGAC (site CTTGTATCTGC)
recombinant UMI read abundance (log10): 0

CTAGTATCATGGACCGGTTTTCCCGGTAATCCGTATTTGAC (site CTTGTATCTGT)
recombinant UMI read abundance (log10): 1.57

CTAGTATCATGGACCGGTTTTCCCGGTAATCCGTATTTGAC (site CTTGTGTCTGT)
recombinant UMI read abundance (log10): 0

CTAGTATCATGGACCGGTTTTCCCGGTAATCCGTATTTGAC (site CTTTTATCTGT)
recombinant UMI read abundance (log10): 1

CTAGTATCATGGACCGGTTTTCCCGGTAATCCGTATTTGAC (site GGAGTATCTGT)
recombinant UMI read abundance (log10): 2.07

CTAGTATCATGGACCGGTTTTCCCGGTAATCCGTATTTGAC (site GTAGGATCTGT)
recombinant UMI read abundance (log10): 0.00691

CTAGTATCATGGACCGGTTTTCCCGGTAATCCGTATTTGAC (site GTAGTACCTGT)
recombinant UMI read abundance (log10): 0

CTAGTATCATGGACCGGTTTTCCCGGTAATCCGTATTTGAC (site GTAGTATCTAT)
recombinant UMI read abundance (log10): 0

CTAGTATCATGGACCGGTTTTCCCGGTAATCCGTATTTGAC (site GTAGTATCTGC)
recombinant UMI read abundance (log10): 0

CTAGTATCATGGACCGGTTTTCCCGGTAATCCGTATTTGAC (site GTAGTATCTGT)
recombinant UMI read abundance (log10): 0
